Data on 4 molecules can be found in US10047086B2, “Imidazopyridines and imidazopyrazines as LSD1 inhibitors” (Incyte Corporation, priority 2014, dated 2018).

The experiment addresses LSD-1 enzyme (Homo sapiens (Human), UniProt O60341). The experiment in a line: LANCE LSD1/KDM1A demethylase assay (LSD1 histone demethylase biochemical assay). The following applies: 1 nM LSD-1 enzyme, 1 hour preincubation at 25° C., 0.4 μM Biotin-labeled Histone H3 peptide substrate.
`CN(C)C1CCN(c2nc(-c3ccc(C#N)cc3)c(-c3ccc4ncccc4c3)n3cncc23)CC1` [Example 145, 4-{8-[4-(dimethylamino)piperidin-1-yl]-5-quinolin-6-ylimidazo[1,5-a]pyrazin-6-yl}benzonitrile] returned an IC50 of at most 50 nM.
In turn, `COc1ncc(-c2c(-c3ccc(C#N)cc3)nc(N3CCC(N(C)C)CC3)c3cncn23)cc1C#N` [Example 148, 5-{6-(4-cyanophenyl)-8-[4-(dimethylamino)piperidin-1-yl]imidazo[1,5-a]pyrazin-5-yl}-2-methoxynicotinonitrile] gave an IC50 of at most 50 nM.
The value for `Cc1cc(-c2c(-c3ccc(C#N)cc3)nc(N3CCC(N(C)C)CC3)c3cncn23)ccc1CO` [Example 149, 4-{8-[4-(dimethylamino)piperidin-1-yl]-5-[4-(hydroxymethyl)-3-methylphenyl]imidazo[1,5-a]pyrazin-6-yl}benzonitrile] was at most 50 nM; that for `Cc1nc2cc(-c3c(-c4ccc(C#N)cc4)cc(OC[C@@H]4CCCN(C)C4)c4cncn34)ccc2n1C` [Example 153, 4-(5-(1,2-dimethyl-1H-benzimidazol-5-yl)-8-{[(3R)-1-methylpiperidin-3-yl]methoxy}imidazo[1,5-a]pyridin-6-yl)benzonitrile] was at most 50 nM.
